Source: US8536351B2, “2-aryl-5-heterocyclyl-cyclohexane-1,3,dione compounds and their use as herbicides” (Syngenta Crop Protection LLC, priority 2007, dated 2013)

Key:
Assay type in all cases: in vivo
[1] = tested on: Alopecurus myosuroides (ALOMY); assay: Pre-emergence activity, glasshouse pot test (100=total damage to plant; 0=no damage to plant); details: rate 500 g/ha, evaluated 19, 20 or 21 days after spraying
Description: (§1) Monocotyledonous and dicotyledonous test plants were sown in standard soil in pots. After cultivation for one day (pre-emergence) or after 10 days cultivation (post-emergence) under controlled conditions in a glasshouse, the plants were sprayed with an aqueous spray solution derived from the formulation of the technical active ingredient in 0.6 ml acetone and 45 ml formulation solution containing 10.6% Emulsogen EL (Registry number 61791-12-6), 42.2% N-methyl pyrrolidone, 42.2% dipropylene glycol monomethyl ether (Registry number 34590-94-8) and 0.2% X-77 (Registry number 11097-66-8). The test plants were then grown in a greenhouse under optimum conditions until, 14 or 15 days later for post-emergence and 19, 20 or 21 days for pre-emergence, the test was evaluated (100=total damage to plant; 0=no damage to plant). Alopecurus myosuroides (ALOMY), Avena fatua (AVEFA), Lolium perenne (LOLPE), Setaria faberi (SETFA), Digitaria sanguinalis (DIGSA), Echinochloa crus-galli (ECHCG) Pre-Emergence Activity

Avena fatua (AVEFA) [2] = assay: as above; details: rate 500 g/ha, evaluated 19, 20 or 21 days after spraying
Description: as §1

[3] = tested on: Digitaria sanguinalis (DIGSA); assay: as above; details: rate 500 g/ha, evaluated 19, 20 or 21 days after spraying
Description: as §1

[4] = tested on: Echinochloa crus-galli (ECHCG); assay: as above; details: rate 500 g/ha, evaluated 19, 20 or 21 days after spraying
Description: as §1

Lolium perenne (LOLPE) [5] = assay: as above; details: rate 500 g/ha, evaluated 19, 20 or 21 days after spraying
Description: as §1

Setaria faberi (SETFA) [6] = assay: as above; details: rate 500 g/ha, evaluated 19, 20 or 21 days after spraying
Description: as §1

[7] = tested on: Alopecurus myosuroides (ALOMY); assay: Post-emergence activity, glasshouse pot test (100=total damage to plant; 0=no damage to plant); details: 336 h, evaluated 14 or 15 days after spraying; for pest or weed control at 500 g/ha: rate 500 g/ha; for pest or weed control at 125 g/ha: rate 125 g/ha
Description: as §1, with “Post-Emergence” for “Pre-Emergence”

Avena fatua (AVEFA) [8] = assay: as above; details: 336 h, evaluated 14 or 15 days after spraying; for pest or weed control at 500 g/ha: rate 500 g/ha; for pest or weed control at 125 g/ha: rate 125 g/ha
Description: as §1, with “Post-Emergence” for “Pre-Emergence”

[9] = tested on: Digitaria sanguinalis (DIGSA); assay: as above; details: evaluated 14 or 15 days after spraying; for pest or weed control at 500 g/ha: rate 500 g/ha; for pest or weed control at 125 g/ha: rate 125 g/ha
Description: as §1, with “Post-Emergence” for “Pre-Emergence”

[10] = tested on: Echinochloa crus-galli (ECHCG); assay: as above; details: evaluated 14 or 15 days after spraying; for pest or weed control at 500 g/ha: rate 500 g/ha; for pest or weed control at 125 g/ha: rate 125 g/ha
Description: as §1, with “Post-Emergence” for “Pre-Emergence”

Lolium perenne (LOLPE) [11] = assay: as above; details: 336 h, evaluated 14 or 15 days after spraying; for pest or weed control at 500 g/ha: rate 500 g/ha; for pest or weed control at 125 g/ha: rate 125 g/ha
Description: as §1, with “Post-Emergence” for “Pre-Emergence”

Setaria faberi (SETFA) [12] = assay: as above; details: evaluated 14 or 15 days after spraying; for pest or weed control at 500 g/ha: rate 500 g/ha; for pest or weed control at 125 g/ha: rate 125 g/ha
Description: as §1, with “Post-Emergence” for “Pre-Emergence”

Compound | pest or weed control at 500 g/ha [1] [%] | pest or weed control at 500 g/ha (Avena fatua (AVEFA) [2]) [%] | pest or weed control at 500 g/ha [3] [%] | pest or weed control at 500 g/ha [4] [%] | pest or weed control at 500 g/ha (Lolium perenne (LOLPE) [5]) [%] | pest or weed control at 500 g/ha (Setaria faberi (SETFA) [6]) [%] | pest or weed control at 500 g/ha [7] [%] | pest or weed control at 500 g/ha (Avena fatua (AVEFA) [8]) [%] | pest or weed control at 500 g/ha [9] [%] | pest or weed control at 500 g/ha [10] [%] | pest or weed control at 500 g/ha (Lolium perenne (LOLPE) [11]) [%] | pest or weed control at 500 g/ha (Setaria faberi (SETFA) [12]) [%] | pest or weed control at 125 g/ha [7] [%] | pest or weed control at 125 g/ha (Avena fatua (AVEFA) [8]) [%] | pest or weed control at 125 g/ha [9] [%] | pest or weed control at 125 g/ha [10] [%] | pest or weed control at 125 g/ha (Lolium perenne (LOLPE) [11]) [%] | pest or weed control at 125 g/ha (Setaria faberi (SETFA) [12]) [%]
CC(=O)OC1=C(c2c(C)cc(C)cc2C)C(=O)CC(C2CCOC2)C1 (stereo not drawn) [Compound P1, 3-oxo-5-(tetrahydrofuran-3-yl)-2-(2,4,6-trimethylphenyl)cyclohex-1-enyl acetate] | 60 | 20 | 60 | 30 | 70 | 0 | 80 | 20 | 80 | 70 | 80 | 70 |  |  |  |  |  | 
CCc1cc(C)cc(CC)c1C1=C(OC(C)=O)CC(C2CCCS(=O)(=O)C2)CC1=O (stereo not drawn) [Compound P2] | 90 | 100 | 100 | 100 | 80 | 100 |  |  |  |  |  |  | 10 | 20 | 90 | 20 | 0 | 20
CCc1cc(C)cc(CC)c1C1=C(OC(=O)C(C)(C)C)CC(C2CCS(=O)(=O)CC2)CC1=O (stereo not drawn) [Compound P3] | 90 | 80 | 100 | 100 | 90 | 90 |  |  |  |  |  |  | 70 | 30 | 70 | 60 | 0 | 60
CCc1cc(C)cc(CC)c1C1=C(O)CC(C2CCOCC2)CC1=O (stereo not drawn) [Compound T2, 2-(2,6-diethyl-4-methylphenyl)-5-(tetrahydropyran-4-yl)cyclohexane-1,3-dione] | 100 | 100 | 100 | 90 | 100 | 100 | 90 | 100 | 100 | 100 | 90 | 90 |  |  |  |  |  | 
Cc1cc(C)c(C2=C(O)CC(C3CCOCC3)CC2=O)c(C)c1 (stereo not drawn) [Compound T3] | 90 | 90 | 100 | 100 | 100 | 60 | 100 | 90 | 80 | 100 | 100 | 90 |  |  |  |  |  | 
Cc1cc(C)c(C2=C(O)CC(C3CCOC3)CC2=O)c(C)c1 (stereo not drawn) [Compound T10] | 90 | 50 | 80 | 80 |  | 70 | 80 | 60 | 90 | 90 | 80 | 80 |  |  |  |  |  | 
CCc1cc(C)cc(CC)c1C1=C(O)CC(C2CC[S+]([O-])CC2)CC1=O (stereo not drawn) [Compound T22] | 90 | 90 |  | 70 | 90 |  | 90 | 90 | 100 | 80 | 80 | 100 |  |  |  |  |  | 
